Measured values from PubChem BioAssay (NCI).
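Exposure lasted 48 hours, with cells grown in 96-well plates and compounds tested at five concentrations. GI50: concentration for 50% inhibition of growth. TGI marks complete inhibition of growth.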

Key:
Assay in all cases: NCI-60 cell line screen, 48 h
[1] = test system: HT29 colon
[2] = test system: U251 CNS
[3] = test system: RPMI-8226 leukemia
[4] = test system: A549 NSCLC
[5] = test system: UACC-257 melanoma
[6] = test system: MALME-3M melanoma
[7] = test system: SK-MEL-5 melanoma
[8] = test system: SK-MEL-28 melanoma
[9] = test system: IGROV1 ovarian
[10] = test system: SK-MEL-2 melanoma
[11] = test system: K-562 leukemia
[12] = test system: NCI-H226 lung
[13] = test system: OVCAR-4 ovarian
[14] = test system: SF-268 CNS
[15] = test system: HL-60(TB) leukemia
[16] = test system: OVCAR-3 ovarian
[17] = test system: M14 melanoma
[18] = test system: A498 renal
[19] = test system: MCF7 breast
[20] = test system: SK-OV-3 ovarian
[21] = test system: MOLT-4 leukemia
[22] = test system: KM12 colon
[23] = test system: SNB-75 CNS
[24] = test system: NCI-H460 lung
[25] = test system: HCC-2998 colon
[26] = test system: NCI-H522 lung
[27] = test system: 786-0 renal
[28] = test system: UO-31 renal
[29] = test system: ACHN renal
[30] = test system: SF-295 CNS
[31] = test system: HCT-15 colon
[32] = test system: SF-539 CNS
[33] = test system: HOP-62 NSCLC
[34] = test system: MDA-MB-468 breast
[35] = test system: COLO 205 colon
[36] = test system: SN12C renal
[37] = test system: MDA-MB-231 breast
[38] = test system: HOP-92 NSCLC
[39] = test system: SW-620 colon
[40] = test system: SNB-19 CNS
[41] = test system: BT-549 breast
[42] = test system: CCRF-CEM leukemia
[43] = test system: T-47D breast
[44] = test system: NCI-H23 lung
[45] = test system: TK-10 renal
[46] = test system: PC-3 prostate
[47] = test system: OVCAR-8 ovarian
[48] = test system: RXF 393 renal
[49] = test system: LOX IMVI melanoma
[50] = test system: OVCAR-5 ovarian
[51] = test system: SR leukemia
[52] = test system: MDA-MB-435
[53] = test system: EKVX NSCLC
[54] = test system: HCT-116 colon
[55] = test system: HS 578T breast
[56] = test system: UACC-62 melanoma
[57] = test system: DU-145 prostate
[58] = test system: CAKI-1 renal

Work on `COc1ccc([C@H]2C(C(=O)c3ccc(Cl)cc3)C3(N[C@@H]2c2ccccc2)C(=O)Nc2ccc(Cl)cc23)cc1` (stereo partly specified) yielded a GI50 [1] of 2.2 µM, a TGI [1] of 8.71 µM and a GI50 [2] of 5.5 µM. For the same compound, the TGI [2] was 13 µM, the GI50 [3] was 3.62 µM and the TGI [3] was 48 µM. It also gave a GI50 [4] of 2.4 µM, a TGI [4] of 13.7 µM and a GI50 [5] of 6.69 µM. It also gave a TGI [5] of 18.6 µM, a GI50 [6] of 8.38 µM and a TGI [6] of 16.1 µM. It also gave a GI50 [7] of 9.38 µM, a TGI [7] of 17.9 µM and a GI50 [8] of 6.47 µM. The TGI [8] was 13.6 µM, the GI50 [9] was 3.54 µM and the TGI [9] was 13.7 µM. The GI50 [10] was 6.16 µM, the TGI [10] was 13.4 µM and the GI50 [11] was 2.31 µM. The TGI [11] was 57.5 µM, the GI50 [12] was 6.64 µM and the TGI [12] was 14.8 µM. It also gave a GI50 [13] of 5.77 µM, a TGI [13] of 27.1 µM and a GI50 [14] of 3.21 µM. It also gave a TGI [14] of 38 µM, a GI50 [15] of 4.1 µM and a TGI [15] of 22.2 µM. For the same compound, the GI50 [16] was 6.39 µM, the TGI [16] was 23.1 µM and the GI50 [17] was 2.99 µM. For the same compound, the TGI [17] was 12.7 µM, the GI50 [18] was 8.68 µM and the TGI [18] was 22.4 µM. For the same compound, the GI50 [19] was 1.91 µM, the TGI [19] was 13.1 µM and the GI50 [20] was 11.5 µM. For the same compound, the TGI [20] was 38.4 µM, the GI50 [21] was 1.95 µM and the TGI [21] was 56.6 µM. It also gave a GI50 [22] of 2.44 µM, a TGI [22] of 12.8 µM and a GI50 [23] of 2.82 µM. The TGI [23] was 27.2 µM, the GI50 [24] was 2.5 µM and the TGI [24] was 9.26 µM. The GI50 [25] was 2.09 µM, the TGI [25] was 8.15 µM and the GI50 [26] was 5.24 µM. For the same compound, the TGI [26] was 14.3 µM, the GI50 [27] was 5.11 µM and the TGI [27] was 20 µM. The GI50 [28] was 1.74 µM, the TGI [28] was 10.8 µM and the GI50 [29] was 2.32 µM. It also gave a TGI [29] of 17.9 µM, a GI50 [30] of 3.08 µM and a TGI [30] of 13.1 µM. It also gave a GI50 [31] of 3.86 µM, a TGI [31] of 12.7 µM and a GI50 [32] of 7.28 µM. For the same compound, the TGI [32] was 16.6 µM, the GI50 [33] was 6.75 µM and the TGI [33] was 14.5 µM. For the same compound, the GI50 [34] was 7.07 µM, the TGI [34] was 19.8 µM and the GI50 [35] was 6.72 µM. The TGI [35] was 14.5 µM, the GI50 [36] was 3 µM and the TGI [36] was 10.4 µM. The GI50 [37] was 4.87 µM, the TGI [37] was 12.2 µM and the GI50 [38] was 2.38 µM. The TGI [38] was 10.7 µM, the GI50 [39] was 5.33 µM and the TGI [39] was 21.5 µM. It also gave a GI50 [40] of 6.5 µM, a TGI [40] of 46.5 µM and a GI50 [41] of 6.91 µM. It also gave a TGI [41] of 14.6 µM, a GI50 [42] of 3.32 µM and a TGI [42] of 25.1 µM. The GI50 [43] was 2.61 µM, the TGI [43] was 13.4 µM and the GI50 [44] was 6.19 µM. For the same compound, the TGI [44] was 16.2 µM, the GI50 [45] was 7.42 µM and the TGI [45] was 19.8 µM. It also gave a GI50 [46] of 1.99 µM, a TGI [46] of 10.6 µM and a GI50 [47] of 4.98 µM. For the same compound, the TGI [47] was 14 µM, the GI50 [48] was 2.93 µM and the TGI [48] was 12 µM. For the same compound, the GI50 [49] was 2.75 µM, the TGI [49] was 14 µM and the GI50 [50] was 6.48 µM. For the same compound, the TGI [50] was 14.1 µM, the GI50 [51] was 2.08 µM and the TGI [51] was 20.5 µM. The GI50 [52] was 4.02 µM, the TGI [52] was 14.5 µM and the GI50 [53] was 6.43 µM. For the same compound, the TGI [53] was 30.7 µM, the GI50 [54] was 2.62 µM and the TGI [54] was 10.5 µM. The GI50 [55] was 7.49 µM, the TGI [55] was 24.9 µM and the GI50 [56] was 2.13 µM. For the same compound, the TGI [56] was 9.36 µM, the GI50 [57] was 7.91 µM and the TGI [57] was 27 µM. The GI50 [58] was 1.53 µM and the TGI [58] was 15.1 µM.
